Source: ChEMBL document CHEMBL4699500, “Synthesis of metronidazole based thiazolidinone analogs as promising antiamoebic agents” (Bioorg Med Chem Lett, 2020)
pIC50: −log10 of the molar value.

Experiments:
Entamoeba histolytica = assay: Antimicrobial activity against Entamoeba histolytica HM1:MMS assessed as reduction in amoeba growth incubated for 72 hrs by microscopy analysis; assay type: functional, organism-based
HEK293 [1] = assay: Cytotoxicity against human HEK293 cells assessed as reduction in cell viability at 2.5 to 50 uM incubated for 48 hrs by MTT assay; assay type: cell-based; details: hek293, 48 h, dose 2.5-50 µM
HEK293 [2] = assay: Cytotoxicity against human HEK293 cells assessed as reduction in cell viability at 100 uM incubated for 48 hrs by MTT assay; assay type: cell-based; details: hek293, 48 h

Structure (SMILES): Cc1ncc([N+](=O)[O-])n1CCOc1ccc(/C=C2\S/C(=N\c3ccccc3)N(Cc3ccccc3Cl)C2=O)cc1
- pIC50 (Entamoeba histolytica): 5.63

Structure (SMILES): Cc1ncc([N+](=O)[O-])n1CCOc1ccc(/C=C2\S/C(=N\c3ccccc3)N(Cc3ccncc3)C2=O)cc1
- Activity (HEK293 [1]): Non-Toxic
- Activity (HEK293 [2]): Non-Toxic
- pIC50 (Entamoeba histolytica): 6.43

Structure (SMILES): Cc1ncc([N+](=O)[O-])n1CCOc1ccc(/C=C2\S/C(=N\c3ccccc3)N(CC3CCCO3)C2=O)cc1 (stereo not drawn)
- pIC50 (Entamoeba histolytica): 5.51

Structure (SMILES): Cc1ncc([N+](=O)[O-])n1CCOc1ccc(/C=C2\S/C(=N\c3ccccc3)N(Cc3ccco3)C2=O)cc1
- Activity (HEK293 [1]): Non-Toxic
- pIC50 (Entamoeba histolytica): 6.19

Structure (SMILES): COc1ccc(CN2C(=O)/C(=C/c3ccc(OCCn4c([N+](=O)[O-])cnc4C)cc3)S/C2=N\c2ccccc2)cc1OC
- Activity (HEK293 [1]): Non-Toxic
- pIC50 (Entamoeba histolytica): 5.98

Structure (SMILES): CCCN1C(=O)/C(=C/c2ccc(OCCn3c([N+](=O)[O-])cnc3C)cc2)S/C1=N\c1ccccc1
- pIC50 (Entamoeba histolytica): 5.44

Structure (SMILES): Cc1ncc([N+](=O)[O-])n1CCOc1ccc(/C=C2\S/C(=N\c3ccccc3)N(Cc3ccc(Cl)cc3Cl)C2=O)cc1
- pIC50 (Entamoeba histolytica): 5.66

Structure (SMILES): Cc1ncc([N+](=O)[O-])n1CCOc1ccc(/C=C2\S/C(=N\c3ccccc3)N(CCO)C2=O)cc1
- Activity (HEK293 [1]): Non-Toxic
- pIC50 (Entamoeba histolytica): 6.74

Structure (SMILES): Cc1ncc([N+](=O)[O-])n1CCOc1ccc(/C=C2\S/C(=N\c3ccccc3)N(CC(C)C)C2=O)cc1
- pIC50 (Entamoeba histolytica): 5.40

Structure (SMILES): Cc1ncc([N+](=O)[O-])n1CCOc1ccc(/C=C2\S/C(=N\c3ccccc3)N(Cc3ccc(F)cc3)C2=O)cc1
- pIC50 (Entamoeba histolytica): 5.55

Structure (SMILES): CCCCN1C(=O)/C(=C/c2ccc(OCCn3c([N+](=O)[O-])cnc3C)cc2)S/C1=N\c1ccccc1
- pIC50 (Entamoeba histolytica): 5.30

Structure (SMILES): Cc1ncc([N+](=O)[O-])n1CCOc1ccc(/C=C2\S/C(=N\c3ccccc3)N(Cc3ccccc3)C2=O)cc1
- Activity (HEK293 [1]): Non-Toxic
- Activity (HEK293 [2]): Non-Toxic
- pIC50 (Entamoeba histolytica): 5.78

Structure (SMILES): Cc1ncc([N+](=O)[O-])n1CCOc1ccc(/C=C2\S/C(=N\c3ccccc3)N(Cc3cccs3)C2=O)cc1
- Activity (HEK293 [1]): Non-Toxic
- Activity (HEK293 [2]): Non-Toxic
- pIC50 (Entamoeba histolytica): 5.79

Structure (SMILES): Cc1ncc([N+](=O)[O-])n1CCO [METRONIDAZOLE]
- Activity (HEK293 [1]): Non-Toxic
